Holding throughout (format): cell-based, human
The subject of assay [1] is MCF-7 cells. The experiment in a line: Cell growth (CCK-8). To be noted: 75 μmol/l peptide, MCF-7, CCK-8; means of three experiments (Fig. 1b).
Description: (§1) Cell growth was analyzed using 2-(2-methoxy-4-nitrophenyl)-3-(4-nitroph enyl)-5-(2,4-disulfophenyl)-2H-tetrazolium, monosodium salt, and the Cell Counting Kit-8 (CCK-8, Sigma). […] After culturing for another 48 hr, cell growth was analyzed by CCK-8 and the optical density was detected at 450 nm. The growth ratio was normalized to the cells without treatment.
Assay [2] deals with MDA-MB-231 cells. The experiment in a line: Cell growth (CCK-8). Conditions: 75 μmol/l peptide, MDA-MB-231, CCK-8; means of three experiments (Fig. 1b).
Description: as §1
The test system of assay [3] is MCF-7 cells. Nature of the assay: Cell cycle analysis, sub-G1 (propidium iodide, flow cytometry). Conditions: MCF-7, 100 μmol/l peptide, flow cytometry (Fig. 3a). The protocol:
MCF-7 and MDA-MB-231 cells were plated in 6-well plates for 24 hr, and the medium was replaced with fresh culture medium containing 100 μmol/l peptide. After incubation for 24 hr, the cells were harvested by trypsinization and then fixed with 70% 4 °C ethanol. Intracellular DNA was stained with […] propidium iodide in the dark for 30 min at room temperature, and the percentages of sub-G1 cells were determined by flow cytometry (BD LSRII analyzer; BD Biosciences).
(In flow cytometry, cells or beads pass a laser one at a time.)

As to “H-TAT-NLS-GGGDPELCATDEMIPFKDEG-NH2 [TAT-NLS-BLBD-3]”, the cell growth result in assay [1] and in assay [2] was “inhibited the growth” throughout.

For the substance “H-TAT-NLS-GTDEAAAA-NH2 [TAT-NLS-BLBD-6m, mutated version of TAT-NLS-BLBD-6 (GTDEAAAA), used as control peptide]”, the cell growth result in assay [1] and in assay [2] was “did not affect the growth” each time. For the same substance, the “sub-G1 phase region (pro-apoptotic effect)” value in assay [3] is 7.35%.
